Experimental findings from ChEMBL document CHEMBL1128938, “Evaluation of furofuran as a P2 ligand for symmetry-based HIV protease inhibitors” (Bioorg Med Chem Lett, 1996) are described below.

The subject of data set [1] is MT4. The data set can be described thus: Cytotoxicity in MT-4 cells using cytopathicity assay. The class given is functional, Homo sapiens.
Data set [2] has as its system MT4. In words: Tested for its anti-HIV activity in MT-4 cells in the presence of 50% human serum. It is filed as functional, cell-based.
The test system of data set [3] is MT4. In words: Tested for its anti-HIV activity in MT-4 cells. The class given is functional, cell-based. The settings on record: Homo sapiens.
The target in data set [4] is Human immunodeficiency virus type 1 protease (Human immunodeficiency virus 1) (UniProt Q72874). In words: Tested for its inhibition against HIV protease at a concentration of 0.5 nM.
Data set [5] is described as follows: Tmax value after oral dose at a dose of 10 mg/kg in rats. The note with it: rat, in vivo. Also noted: dose 10 mg/kg, route oral. It is filed as ADME, organism-based.
Data set [6] is described as follows: AUC value after IV dose at a dose of 5 mg/kg in rats. The note with it: rat, plasma. The class given is ADME, organism-based. Further details: dose 5 mg/kg, route intravenous.
Data set [7] is described as follows: AUC value after oral dose at a dose of 10 mg/kg in rats. The class given is ADME, organism-based. Also noted: dose 10 mg/kg, route oral. The note with it: rat, plasma.
Data set [8] can be described thus: Oral bioavailability in rat (dose 10 mg/kg p.o.). It is filed as ADME, organism-based. The note with it: in vivo.
Data set [9] can be described thus: Cmax value after oral dose at a dose of 10 mg/kg in rats. The class given is ADME, organism-based. Further details: dose 10 mg/kg, route oral. The settings on record: rat, in vivo.
The nature of data set [10]: Half-life value after IV dose at a dose of 5 mg/kg in rats. Further details: dose 5 mg/kg, route intravenous. The class given is ADME, organism-based. The settings on record: rat, in vivo.
Data set [11] addresses Human immunodeficiency virus type 1 protease (Human immunodeficiency virus 1) (UniProt Q72874). The data set can be described thus: Compound was tested for its inhibition against HIV protease at a concentration of 4 nM.

Broadly, the EC50 is the concentration that produces a half-maximal response. Usually inhibition stands for the relative decrease from the control value, in per cent. Read a low inhibition as a response near the control. For orientation: Tmax means the time from dosing to the highest level. As a reminder, the AUC is the area under the concentration-time curve, a measure of exposure. In general, bioavailability refers to the share of a dose that reaches the circulation, judged against a reference dose that is usually intravenous. A lower bioavailability goes with little systemic uptake. The term Cmax denotes the highest concentration seen after dosing. In general, half-life refers to the time in which the quantity being followed falls by half. Low values mean rapid decline, high ones slow decline.

The structures appear in SMILES notation.

On to `O=C(N[C@@H](Cc1ccccc1)C[C@H](O)[C@H](Cc1ccccc1)NC(=O)OC1COC2OCCC12)OC1COC2OCCC12` (stereo partly drawn), for which the CCIC50 with MT4 [1] is more than 100 µM. The figures for the EC50 in the data set with MT4 [2] and in the data set with MT4 [3] were 77 nM and 71 nM, respectively. Moreover, the inhibition in [4] came out at 53%.
Turning to `CC(C)(C)OC(=O)N[C@@H](Cc1ccccc1)C[C@H](O)[C@H](Cc1ccccc1)NC(=O)O[C@H]1COC2OCCC21` (stereo partly drawn), the CCIC50 with MT4 [1] was 69 µM. For the same compound, in the data set with MT4 [3], the EC50 came out at 180 nM. The same compound had an inhibition in data set [4] of 63%.
Consider `O=C(N[C@@H](Cc1ccccc1)[C@@H](O)C[C@H](Cc1ccccc1)NC(=O)O[C@@H]1COC2OCCC21)O[C@H]1COC2OCCC21` (stereo partly drawn), for which the CCIC50 with MT4 [1] was more than 100 µM. In addition, the EC50 in the data set on MT4 [2] turned out to be 1920 nM; in the data set with MT4 [3], 891 nM. This compound also registered an inhibition in data set [4] of 39%.
In the data set on MT4 [1], `O=C(N[C@@H](Cc1ccccc1)[C@@H](O)C[C@H](Cc1ccccc1)NC(=O)OC1COC2OCCC12)Oc1cncs1` (stereo partly drawn) registered a CCIC50 of more than 100 µM. The EC50 in the data set on MT4 [2] was found to be 774 nM; in the data set on MT4 [3] it was 428 nM. Further, in data set [4], the inhibition stood at 52%.
Turning to `CC(C)c1nc(CN(C)C(=O)N[C@H](C(=O)N[C@@H](Cc2ccccc2)C[C@H](O)[C@H](Cc2ccccc2)NC(=O)OCc2cncs2)C(C)C)cs1` [RITONAVIR], the CCIC50 in the data set on MT4 [1] came to 56 µM. Besides, the concentration giving a half-maximal response (EC50) turned out to be 810 nM with MT4 [2] and 70 nM in the data set with MT4 [3]. In [4], this compound returned an inhibition of 78%.
The matching figures for `O=C(N[C@@H](Cc1ccccc1)C[C@H](O)[C@H](Cc1ccccc1)NC(=O)OC1COC2OCCC12)Oc1cncs1` (stereo partly drawn): more than 100 µM, 1200 nM, 502 nM and 43%.
The matching figures for `CC(C)(C)OC(=O)N[C@@H](Cc1ccccc1)C[C@H](O)[C@H](Cc1ccccc1)NC(=O)O[C@@H]1COC2OCCC21` (stereo partly drawn): more than 100 µM, 4730 nM, 1040 nM and 45%.
As to `O=C(N[C@@H](Cc1ccccc1)C[C@H](O)[C@H](Cc1ccccc1)NC(=O)O[C@H]1COC2OCCC21)Oc1cncs1` (stereo partly drawn), in [5], the Tmax was 30 min. The AUC in data set [6] turned out to be 2300 ng·h/mL; in data set [7], 1890 ng·h/mL. For the same compound, the CCIC50 in the data set on MT4 [1] was more than 100 µM. Further, the EC50 is 290 nM with MT4 [2] and 140 nM with MT4 [3]. Moreover, the bioavailability in data set [8] came to 41.1%. In data set [9], the Cmax amounted to 1120 ng/mL. In [4], this compound yielded an inhibition of 53%. This compound gave a half-life in [10] of 41.4 min.
Turning to `O=C(N[C@@H](Cc1ccccc1)C[C@H](O)[C@H](Cc1ccccc1)NC(=O)O[C@H]1COC2OCCC21)O[C@H]1COC2OCCC21` (stereo partly drawn), the CCIC50 in the data set with MT4 [1] was more than 100 µM. In addition, the EC50 turned out to be 115 nM in the data set with MT4 [2] and 34 nM in the data set on MT4 [3]. The compound also yielded an inhibition in [4] of 64%.
For the compound `O=C(N[C@@H](Cc1ccccc1)C[C@H](O)[C@H](Cc1ccccc1)NC(=O)O[C@@H]1COC2OCCC21)O[C@H]1COC2OCCC21` (stereo partly drawn), the CCIC50 with MT4 [1] was more than 100 µM. The EC50 in the data set with MT4 [2] was 197 nM; with MT4 [3], 107 nM. Besides, in data set [4], the inhibition turned out to be 73%.
The compound `CC(C)(C)OC(=O)N[C@@H](Cc1ccccc1)C[C@H](O)[C@H](Cc1ccccc1)NC(=O)OC1COC2OCCC12` (stereo partly drawn) had a CCIC50 with MT4 [1] of 56 µM. For the same compound, the EC50 in the data set on MT4 [2] and in the data set with MT4 [3] was 200 nM in each case. In data set [4], this compound displayed an inhibition of 49%.
`O=C(N[C@@H](Cc1ccccc1)C[C@H](O)[C@H](Cc1ccccc1)NC(=O)O[C@@H]1COC2OCCC21)O[C@@H]1COC2OCCC21` (stereo partly drawn) gave an inhibition in data set [11] of 50%. In the data set on MT4 [1], this compound registered a CCIC50 of more than 100 µM. Besides, the EC50 stood at 4180 nM with MT4 [2] and 3680 nM in the data set with MT4 [3].
